Experiments:
[1] = system: VEGF protein expression in 293 cells; conditions: HEK-293 cells, desferroxamine 100 μM, Cyclopamine 10 μM, 24 hours
Procedure: Five μl of 95% ethanol was added to untreated control.
Twenty-four hours after induction of hypoxia the supernatant of the 293 cells was removed from wells and a human VEGF ELISA (R & D Systems, Minneapolis, Minn.) was performed on the cell supernatants (FIG. 4) as described in the Quantikine human VEGF ELISA protocol using a dilution of
the medium of 1:10. ELISA results were read on a Bio-Rad Reader 550 ELISA plate reader (Bio-Rad Laboratories, Inc, CA).

[2] = system: retinal (ocular) neovascularization; assay: Angiography after fluorescein-dextran perfusion in mouse model of Retinopathy of Prematurity (ROP); format: in vivo, C57/BL6 mice; conditions: ROP mice
From the text: To determine whether inhibition of the Shh signaling pathway by administration of an siRNA targeting Shh is able to reduce retinal (ocular) neovascularization, siRNA targeting Shh is administrated to a mouse model of Retinopathy of Prematurity (ROP).
C57/BL6 mice are used in this study. Mice from postnatal day 7 (P7) to P12 are exposed to hyperoxia (25% nitrogen, 75% oxygen). At P12 mice return to room air until P17. The group of five mice treated with siRNA targeting Shh receive a daily subretinal injection (1 μl) of 100 mg/ml siRNA targeting Shh dissolved in Phosphate-Buffered Saline (PBS) from P12 to P17, controls receive the vehicle alone.

Hh-dependent tumors = conditions: mice that carry Hh-dependent tumors; cited from earlier work
[3] = daily subretinal injection (1 μl) of 100 mg/ml siRNA in PBS from P12 to P17, angiography on P17, vs vehicle control eyes

Which “inhibition of hypoxia-induced VEGF expression” value [1] does the source give for `CC1=C2C[C@H]3[C@@H](CC=C4C[C@@H](O)CC[C@@]43C)[C@@H]2CC[C@]12O[C@@H]1C[C@H](C)CN[C@H]1[C@H]2C` [cyclopamine] here?
The value was “Able to Inhibit Hypoxia-Induced VEGF Expression”.

And the “inhibition of ocular neovascularization (neovascular tufts and vessel leakage)” value (from here on “inhibition of ocular neovascularization”) ([2]; daily subcutaneous injection of 50 mg/kg from P12 to P17, angiography on P17, vs vehicle control eyes)?
The value was “Robust inhibition of ocular neovascularization”.

And the “effect on Hh-dependent tumors” value (Hh-dependent tumors)?
The value was “growth inhibition and regression of cancerous tissue”.

What about the “health of treated animals” value (Hh-dependent tumors) of the same molecule?
Its value is “does not affect the health of treated animals”.

With “siRNA targeting Gli1: siRNA duplex, SEQ ID NO:19 (sense strand) and SEQ ID NO:20 (antisense strand) (sense ACGCCGCAGCAGCAGCUCCUU; antisense GGAGCUGCUGCUGCGGCGUUU; listed as RNA, chemistry not given here)” as the molecule, how does the “inhibition of ocular neovascularization” value [2, 3] read?
The value was “Robust inhibition of ocular neovascularization”.

With “siRNA targeting Shh: siRNA duplex, SEQ ID NO:16 (sense strand) and SEQ ID NO:15 (antisense strand) (sense AAUUACAACCCCGACAUCAUAUU; antisense UAUGAUGUCGGGGUUGUAAUUUU; listed as RNA, chemistry not given here)” as the molecule, how does the “inhibition of ocular neovascularization” value [2, 3] read?
The value was “Robust inhibition of ocular neovascularization”.

For “siRNA targeting Smoothened: siRNA duplex, SEQ ID NO:17 (sense strand) and SEQ ID NO:18 (antisense strand) (sense AAGGCCUUCUCUAAGCGGCAUU; antisense UGCCGCUUAGAGAAGGCCUUUU; listed as RNA, chemistry not given here)”, which “inhibition of ocular neovascularization” value [2, 3] is on record?
Its value is “Robust inhibition of ocular neovascularization”.

B1: soluble Hip1: secreted form of Hedgehog interacting protein 1 lacking the transmembrane domain (SEQ ID NO:6), produced in 293 cells (protein, listed as Mus musculus)
chain: MLKMLSFKLLLLAVALGFFEGDAKFGERNEGSGARRRRCLNGNPPKRLKRRDRRVMSQLELLSGGEILCGGFYPRVSCCLQSDSPGLGRLENKIFSATNNSECSRLLEEIQCAPCSPHSQSLFYTPERDVLDGDLALPLLCKDYCKEFFYTCRGHIPGLLQTTADEFCFYYARKDAGLCFPDFPRKQVRGPASNYLGQMEDYEKVGGISRKHKHNCLCVQEVMSGLRQPVSAVHSGDGSHRLFILEKEGYVKILTPEGELFKEPYLDIHKLVQSGIKGGDERGLLSLAFHPNYKKNGKLYVSYTTNQERWAIGPHDHILRVVEYTVSRKNPHQVDVRTARVFLEVAELHRKHLGGQLLFGPDGFLYIILGDGMITLDDMEEMDGLSDFTGSVLRLDVDTDMCNVPYSIPRSNPHFNSTNQPPEVFAHGLHDPGRCAVDRHPTDININLTILCSDSNGKNRSSARILQIIKGRGYESEPSLLEFKPFSNGPLVGGFVYRGCQSERLYGSYVFGDRNGNFLTLQQSPVTKQWQEKPLCLGASSSCRGYFSGHILGFGEDELGEVYILSSSKSMTQTHNGKLYKIVDPKRPLMPEECRVTVQPAQPLTSDCSRLCRNGYYTPTGKCCCSPGWEGDFCRIAKCEPACRHGGVCVRPNKCLCKKGYLGPQCEQVDRNVRRVTR
For B1, which “inhibition of ocular neovascularization” value ([2]; daily subretinal injection of 50 mg/kg in PBS from P12 to P17, angiography on P17, vs vehicle control eyes) is on record?
Its value is “Robust inhibition of ocular neovascularization”.

Source: patent US7517870B2, “Use of compounds that interfere with the hedgehog signaling pathway for the manufacture of a medicament for preventing, inhibiting, and/or reversing ocular diseases related with ocular neovascularization” (Fondazione Telethon, priority 2004, dated 2009)
